Legend:
[1] = system: mouse colon tumor cell-derived cell line Colon-26; test: Antitumor activity, viable cell count (Tetra Color ONE, absorbance 450 nm) in Colon-26; format: cell-based; conditions: Colon-26, 1.25 μM, compared with Control, FIG. 1
Method: (§1) As tumor cells, mouse colon tumor cell-derived cell line Colon-26, human glioblastoma-derived cell line T98G, and human malignant melanoma-derived cell line G361 were used. The tumor cells of each cell line were cultured in RPMI 1640 containing 10% FBS and 0.5% penicillin-streptomycin, as the base medium, in the presence of 5% CO2, at 37° C., under humidity conditions. The tumor cells (5.0×10^4) of each cell line having been cultured to a sufficiently confluent state were seeded in a 1.5 mL tube together with the medium. Each of the rotaxane compounds was dissolved in DMSO as a vehicle (solvent) and was added to the tube in a predetermined concentration so that the total amount is 1000 μL. Then, 100 μL of this was dispensed to each well of a 96-well microplate and was incubated in a CO2 incubator for 24 hours. Subsequently, 10 μL of a viable-cell-counting reagent (Tetra Color ONE, a product of Seikagaku Corporation) was added to each well of the 96-well microplate, and a reaction was performed in the CO2 incubator for 2 hours. The ultraviolet absorbance at 450 nm (control wavelength: 620 nm) was measured […] the reaction with a microplate reader. Note that the higher absorbance means the lager number of viable cells.
The antitumor activities of TRO-A0014 and TRO-A0015 were verified using Colon-26 as tumor cells as in the method of (5-1) described above. […]

[2] = system: human malignant melanoma-derived cell line G361; test: Antitumor activity, viable cell count (Tetra Color ONE, absorbance 450 nm) in G361; format: cell-based; conditions: G361, at every rotaxane concentrations, FIG. 2
Method: as §1
The antitumor activity of TRO-A0010 was verified using T98G and G361 as tumor cells as in the above (5-1).

For “[2][(3,5-dimethylphenylcarboxyethyl)(3,5-dimethylphenylcarboxypropyl) ammonium-rotaxa-[2,5,8,11,13,16,19,22-octaoxa-1,12(1,2)-dibenzenacyclodocosaphane]] trifluoromethanesulfonate [TRO-A0014]”, the “cell growth-inhibiting effect at a concentration of 1.25 μM” value [1] was “obviously observed”.
For “[2][bis(3,5-dimethylphenylcarboxypentyl)ammonium-rotaxa-[2,5,8,11,13,16,19,22-octaoxa-1,12(1,2)-dibenzenacyclodocosaphane]]trifluoromethanesulfonate [TRO-A0010]”, the “cell growth-inhibiting effect compared with TRO-A0001” value [2] was “higher than that of TRO-A0001”.

From patent publication US8207357B2, “Rotaxane compound and antitumor agent” (Wan Station Co., Ltd., priority 2008, dated 2012)
